These results are taken from patent publication US9510598B2, “Nitrogen-containing heterocyclic compounds for plant disease control” (BAYER CROPSCIENCE AG, priority 2012, dated 2016).

“And” between values parts separate entries of the source, which are not always exact repeats. Equal entries are not always repeated.

Test system in the first series: not given
Format: physicochemical. The conditions noted are these: method [a]: HPLC/LC-MS on reversed phase at pH 2.7, 0.1% formic acid in water / acetonitrile, linear gradient 10% to 95% acetonitrile.
With `CCn1nc(C)c(CNC(=O)C2(C)CC(c3ccc4ncc(Br)cc4c3)=NO2)c1C` (stereo not drawn) [compound 88], the “log P” value was 2.32^[a].
With `C#Cc1cnc2ccc(C3=NOC(C)(C(=O)NCc4ccnc(N5CCOCC5)c4)C3)cc2c1` (stereo not drawn) [compound 194], the “log P” value is 1.36^[a].

The test system of the next series is Phytophthora infestans. Format: in vivo. To be noted: 500 ppm; tomato plants sprayed 24 hours before contamination; grading 5 days after contamination vs control plants.
Consider `CCn1nc(C)c(CNC(=O)C2(C)CC(c3ccc4ncc(Br)cc4c3)=NO2)c1C` (stereo not drawn) [compound 88], for which the “% of efficacy (protection)” value is on record as 100%.
Turning to `C#Cc1cnc2ccc(C3=NOC(C)(C(=O)NCc4ccnc(N5CCOCC5)c4)C3)cc2c1` (stereo not drawn) [compound 194], the “% of efficacy (protection)” value is listed as 94%.

Test system in a further series: not given
To be noted: Table 2, formula (II); method [a]: pH 2.7, 0.1% formic acid in water / acetonitrile gradient.
`COC(=O)C1(C)CC(c2cc3cc(Br)cnc3c(F)c2F)=NO1` (stereo not drawn) [II-27]: the “Log P” value was 3.06[a].
The same measure, in the same setting: the same measure for `COC(=O)C1(C)CC(c2cc3cccnc3c(F)c2F)=NO1` (stereo not drawn) [II-29]: 2.11[a].
Same read-out and setting: for `COC(=O)C1(C)CC(c2ccc3ncc(I)cc3c2)=NO1` (stereo not drawn) [II-30] the value was 2.71[a]; for `COC(=O)C12CCCC1C(c1ccc3ncc(Br)cc3c1)=NO2` (stereo not drawn) [II-31], 3.23[a].
Still for that read-out and setting: for `COC(=O)C12OCCCC1C(c1ccc3ncc(Br)cc3c1)=NO2` (stereo not drawn) [II-32] the value was 2.80[a].
For the molecule `COC(=O)C1(C)CC(c2ccc3ncc(Br)cc3c2)=NO1` (stereo not drawn) [II-33], the “Log P” value was 2.69[a].
The same measure, in the same setting: the same measure for `COC(=O)C1(C)CC(c2cc3cc(Br)cnc3cc2F)=NO1` (stereo not drawn) [II-34]: 2.94[a].
`C#Cc1cnc2ccc(C3=NOC(C)(C(=O)OC)C3)cc2c1` (stereo not drawn) [II-35]: the lipophilicity (Log P) was 2.35[a].
On the same count and under the same terms, for `O=C(O)C1(CF)CC(c2ccc3ncc(Br)cc3c2)=NO1` (stereo not drawn) [II-36] the value was 1.94[a].
On the same count and under the same terms, for `O=C(O)C1(C2CC2)CC(c2ccc3ncc(Br)cc3c2)=NO1` (stereo not drawn) [II-37] the value was 2.43[a]; for `COc1nc2ccc(C3=NOC(C)(C(=O)O)C3)cc2cc1Br` (stereo not drawn) [II-38], 2.64[a].
Regarding `COC(=O)C1(C(C)=NO)CC(c2ccc3ncc(Br)cc3c2)=NO1` (stereo not drawn) [II-39], the “Log P” value is 2.58[a].
`COC(=O)C1(C(C)=O)CC(c2ccc3ncc(Br)cc3c2)=NO1` (stereo not drawn) [II-40]: the “Log P” value is 2.94[a].
Same read-out and setting: for `COC(=O)C1ON=C(c2ccc3ncc(Br)cc3c2)C12CC2` (stereo not drawn) [II-41] the value was 2.71[a]; for `CCOC(=O)C1(C)ON=C(c2ccc3ncc(Br)cc3c2)C1CC` (stereo not drawn) [II-42], 3.74[a]; for `CC1(C(=O)O)CC(c2ccc3nc(Cl)c(Br)cc3c2)=NO1` (stereo not drawn) [II-43], 2.57[a].
Turning to `COC(=O)C1(C)CC(c2ccc3nc(Cl)c(Br)cc3c2)=NO1` (stereo not drawn) [II-44], the “Log P” value is 3.74[a].
Consider `COC(=O)C1(C)CC(c2ccc3nc(O)c(Br)cc3c2)=NO1` (stereo not drawn) [II-45], for which the “Log P” value is 1.74[a].
For the molecule `CC1(C(=O)O)CC(c2ccc3nc(C#N)c(Br)cc3c2)=NO1` (stereo not drawn) [II-46], the log partition coefficient (Log P) is 2.23[a].
Regarding `COC(=O)C1(C)CC(c2ccc3nc(C#N)c(Br)cc3c2)=NO1` (stereo not drawn) [II-47], the log partition coefficient (Log P) is 3.02[a].
Same read-out and setting: for `CCOC(=O)C1(C)ON=C(c2ccc3ncc(Br)cc3c2)C1OCC` (stereo not drawn) [II-49] the value was 3.99[a].
As to `COC(=O)CC1(C(=O)O)CC(c2ccc3ncc(Br)cc3c2)=NO1` (stereo not drawn) [II-50], the “Log P” value was 1.98[a].
Take `COC(=O)C12ON=C(c3ccc4ncc(Br)cc4c3)C1C2C` (stereo not drawn) [II-51]: the “Log P” value is 3.09[a].
On the same count and under the same terms, for `COC(=O)C1(CO)CC(c2ccc3ncc(Br)cc3c2)=NO1` (stereo not drawn) [II-52] the value was 1.99[a]; for `C[Si](C)(C)CC1(C(=O)O)CC(c2ccc3ncc(Br)cc3c2)=NO1` (stereo not drawn) [II-54], 3.42[a].
Take `C#Cc1cc2cc(C3=NOC(C)(C(=O)O)C3)ccc2nc1Cl` (stereo not drawn) [II-55]: the “Log P” value was 2.24[a].
Take `C#Cc1cc2cc(C3=NOC(C)(C(=O)OC)C3)ccc2nc1Cl` (stereo not drawn) [II-56]: the “Log P” value is 3.01[a].
Turning to `CCOC(=O)C1(OCC)CC(c2ccc3ncc(Br)cc3c2)=NO1` (stereo not drawn) [II-57], the log partition coefficient (Log P) is 2.53[a].
Same read-out and setting: the same measure for `CCOC(=O)C1(C[Si](C)(C)C)CC(c2ccc3ncc(Br)cc3c2)=NO1` (stereo not drawn) [II-58]: 3.80[a].
Still for that read-out and setting: for `CC(C)OC(=O)C1(C)CC(c2ccc3ncc(Br)cc3c2)=NO1` (stereo not drawn) [II-59] the value was 3.53[a].
On the same count and under the same terms, for `COC(=O)C1(C)CC(c2ccc3nc(Cl)c(I)cc3c2)=NO1` (stereo not drawn) [II-60] the value was 3.34 and 3.62; for `CCOC(=O)C1(CF)CC(c2ccc3ncc(Br)cc3c2)=NO1` (stereo not drawn) [II-62], 3.13[a].
Regarding `CCOC(=O)C1(CC)CC(c2ccc3ncc(Br)cc3c2)=NO1` (stereo not drawn) [II-63], the “Log P” value is 3.53[a].
The same measure, in the same setting: the same measure for `CCC1(C(=O)O)CC(c2ccc3ncc(Br)cc3c2)=NO1` (stereo not drawn) [II-64]: 2.30[a]; for `O=C(O)C1(CC2CC2)CC(c2ccc3ncc(Br)cc3c2)=NO1` (stereo not drawn) [II-66]: 2.70[a]; for `CCOC(=O)C1(CC)CC(c2ccc3ncc(C#C[Si](C)(C)C)cc3c2)=NO1` (stereo not drawn) [II-67]: 5.19[a].
Take `COC(=O)C1(C)CC(c2ccc3nc(C#N)c(I)cc3c2)=NO1` (stereo not drawn) [II-68]: the “Log P” value was 3.02[a].
For `C#Cc1cnc2ccc(C3=NOC(CC)(C(=O)O)C3)cc2c1` (stereo not drawn) [II-69], the log partition coefficient (Log P) was 2.05[a].
On the same count and under the same terms, for `C=C(Cl)C1(C(=O)OC)CC(c2ccc3ncc(Br)cc3c2)=NO1` (stereo not drawn) [II-70] the value was 3.68[a].
Still for that read-out and setting: for `C#Cc1cnc2ccc(C3=NOC(OC)(C(=O)OCCCC(C)NC(C)CCCOC(=O)C4(OC)CC(c5ccc6ncc(C#C)cc6c5)=NO4)C3)cc2c1` (stereo not drawn) [II-71] the value was 2.20[a].
Regarding `C=C(C)C1(C(=O)OC)CC(c2ccc3ncc(Br)cc3c2)=NO1` (stereo not drawn) [II-72], the log partition coefficient (Log P) is 3.44[a].
Still for that read-out and setting: the same measure for `C=C(C)C1(C(=O)O)CC(c2ccc3ncc(Br)cc3c2)=NO1` (stereo not drawn) [II-73]: 2.52[a]; for `C#Cc1cnc2c(C)cc(C3=NOC(C)(C(=O)OC)C3)cc2c1` (stereo not drawn) [II-74]: 3.07[a].
Still for that read-out and setting: for `C#Cc1cnc2c(Cl)cc(C3=NOC(C)(C(=O)OC)C3)cc2c1` (stereo not drawn) [II-75] the value was 2.92[a]; for `COC(=O)C1(C)CC(c2cc(Cl)c3ncc(Br)cc3c2)=NO1` (stereo not drawn) [II-76], 3.29[a]; for `C#Cc1cnc2c(Cl)cc(C3=NOC(C)(C(=O)O)C3)cc2c1` (stereo not drawn) [II-78], 2.20[a].
As to `CC1(C(=O)O)CC(c2cc(Cl)c3ncc(Br)cc3c2)=NO1` (stereo not drawn) [II-79], the lipophilicity (Log P) is 2.45[a].
With `C#Cc1cnc2c(C)cc(C3=NOC(C)(C(=O)O)C3)cc2c1` (stereo not drawn) [II-81], the “Log P” value was 2.30[a].
Take `CC1(C(=O)O)CC(c2ccc3nc(C#N)c(I)cc3c2)=NO1` (stereo not drawn) [II-82]: the log partition coefficient (Log P) was 2.24[a].
As for `CC1(C(=O)O)CC(c2ccc3nc(Cl)c(I)cc3c2)=NO1` (stereo not drawn) [II-83], the log partition coefficient (Log P) was 2.59[a].
The same measure, in the same setting: the same measure for `COC(=O)C1(SC)CC(c2ccc3ncc(Br)cc3c2)=NO1` (stereo not drawn) [II-84]: 3.05[a].
Consider `Cc1cc(C2=NOC(C)(C(=O)O)C2)cc2cc(Br)cnc12` (stereo not drawn) [II-85], for which the log partition coefficient (Log P) was 2.64[a].
Take `C#Cc1cnc2c(C)cc(C3=NOC(OC)(C(=O)OCC)C3)cc2c1` (stereo not drawn) [II-86]: the log partition coefficient (Log P) is 3.46[a].
On to `CCOC(=O)C1(OC)CC(c2cc(Cl)c3ncc(Br)cc3c2)=NO1` (stereo not drawn) [II-87], for which the log partition coefficient (Log P) was 3.69[a].
On the same count and under the same terms, for `CSC1(C(=O)O)CC(c2ccc3ncc(Br)cc3c2)=NO1` (stereo not drawn) [II-88] the value was 2.01[a].
As to `COC1(C(=O)O)CC(c2cc(Cl)c3ncc(Br)cc3c2)=NO1` (stereo not drawn) [II-89], the lipophilicity (Log P) was 2.19[a].
For the molecule `C#Cc1cnc2c(Cl)cc(C3=NOC(OC)(C(=O)O)C3)cc2c1` (stereo not drawn) [II-90], the “Log P” value is 1.95[a].
Same read-out and setting: the same measure for `CCOC(=O)C1(OC)CC(c2cc(C)c3ncc(Br)cc3c2)=NO1` (stereo not drawn) [II-91]: 3.99[a]; for `COC1(C(=O)O)CC(c2cc(C)c3ncc(Br)cc3c2)=NO1` (stereo not drawn) [II-92]: 2.42[a]; for `C#Cc1cnc2c(C)cc(C3=NOC(OC)(C(=O)O)C3)cc2c1` (stereo not drawn) [II-93]: 2.07[a].
Turning to `N#CC1(C(=O)O)CC(c2ccc3ncc(Br)cc3c2)=NO1` (stereo not drawn) [II-94], the “Log P” value is 1.42[a].
Still for that read-out and setting: for `COC(=O)C1(C)CC(c2ccc3ncc(Br)c(Cl)c3c2)=NO1` (stereo not drawn) [II-95] the value was 3.29[a]; for `CC1(C(=O)O)CC(c2ccc3ncc(Br)c(Cl)c3c2)=NO1` (stereo not drawn) [II-96], 2.34[a].

Still in this series, the particulars now being: Table 3, formula (V); method [a]: pH 2.7, 0.1% formic acid in water / acetonitrile gradient.
For `ON=Cc1cc2cccnc2c(F)c1F` [V-01], the “Log P” value was 1.48[a].
In the case of `ON=C(Cl)c1cc2cccnc2c(F)c1F` [V-02], the “Log P” value is 2.04[a].
Consider `ON=C(Cl)c1cc2cc(Br)cnc2c(F)c1F` [V-03], for which the “Log P” value is 2.92[a].
Still for that read-out and setting: the same measure for `ON=Cc1cc2cc(Br)cnc2cc1F` [V-05]: 2.21[a]; for `ON=C(Cl)c1cc2cc(Br)cnc2cc1F` [V-06]: 2.63[a].
As for `ON=Cc1ccc2ncc(I)cc2c1` [V-07], the “Log P” value is 1.98[a].
In the case of `ON=C(Cl)c1ccc2ncc(I)cc2c1` [V-08], the log partition coefficient (Log P) is 2.63[a].
As for `ON=Cc1ccc2ncc(Br)cc2c1` [V-09], the log partition coefficient (Log P) was 1.88[a].
On to `ON=C(Cl)c1ccc2ncc(Br)cc2c1` [V-10], for which the “Log P” value is 2.52[a].
In the case of `ON=Cc1ccc2ncc(Cl)cc2c1` [V-11], the log partition coefficient (Log P) was 1.78[a].
The same measure, in the same setting: for `ON=Cc1ccc2ncc(I)cc2c1` [V-13] the value was 2.08[a]; for `ON=C(Cl)c1ccc2ncc(I)cc2c1` [V-14], 2.77[a].
The same measure, in the same setting: the same measure for `C#Cc1cnc2c(C)cc(C=NO)cc2c1` [V-15]: 2.21[a].
On the same count and under the same terms, for `Cc1cc(C=NO)cc2cc(Br)cnc12` [V-16] the value was 2.61[a]; for `ON=Cc1cc(Cl)c2ncc(Br)cc2c1` [V-17], 2.40[a]; for `ON=C(Cl)c1cc(Cl)c2ncc(Br)cc2c1` [V-18], 3.10[a].
On to `Cc1cc(C(Cl)=NO)cc2cc(Br)cnc12` [V-19], for which the “Log P” value was 3.37[a].
For the molecule `ON=Cc1ccc2ncc(Br)c(Cl)c2c1` [V-21], the log partition coefficient (Log P) is 2.43[a].
On the same count and under the same terms, for `ON=C(Cl)c1ccc2ncc(Br)c(Cl)c2c1` [V-22] the value was 3.16[a]; for `ON=Cc1cc(F)c2ncc(Br)cc2c1` [V-23], 2.08[a].
